{"source": "paper PMC4223017", "about": "“Structural Model of the hUbA1-UbcH10 Quaternary Complex: In Silico and Experimental Analysis of the Protein-Protein Interactions between E1, E2 and Ubiquitin” (PLoS ONE, 2014)", "molecules": {"B1": {"name": "L2 peptide (hUbA1 cross loop, 615-627) (peptide)", "peptide": "{Biotin-Ahx}-TESYSSSQDPPEK-NH2", "SMILES": "C[C@@H](O)[C@H](NC(=O)CCCCCNC(=O)CCCC[C@@H]1SC[C@@H]2NC(=O)N[C@@H]21)C(=O)N[C@@H](CCC(=O)O)C(=O)N[C@@H](CO)C(=O)N[C@@H](Cc1ccc(O)cc1)C(=O)N[C@@H](CO)C(=O)N[C@@H](CO)C(=O)N[C@@H](CO)C(=O)N[C@@H](CCC(N)=O)C(=O)N[C@@H](CC(=O)O)C(=O)N1CCC[C@H]1C(=O)N1CCC[C@H]1C(=O)N[C@@H](CCC(=O)O)C(=O)N[C@@H](CCCCN)C(N)=O", "notes": "human UbA1 (E1), cross loop region, residues 615-627; source: synthetic peptide (Fmoc solid phase, RP-HPLC purified)"}, "B2": {"name": "L2-scrambled peptide (peptide)", "peptide": "{Biotin-Ahx}-SDPSKTSEYQPSE-NH2", "SMILES": "C[C@@H](O)[C@H](NC(=O)[C@H](CCCCN)NC(=O)[C@H](CO)NC(=O)[C@@H]1CCCN1C(=O)[C@H](CC(=O)O)NC(=O)[C@H](CO)NC(=O)CCCCCNC(=O)CCCC[C@@H]1SC[C@@H]2NC(=O)N[C@@H]21)C(=O)N[C@@H](CO)C(=O)N[C@@H](CCC(=O)O)C(=O)N[C@@H](Cc1ccc(O)cc1)C(=O)N[C@@H](CCC(N)=O)C(=O)N1CCC[C@H]1C(=O)N[C@@H](CO)C(=O)N[C@@H](CCC(=O)O)C(N)=O", "notes": "scrambled order of the residues of peptide L2; also called ScrL2; source: synthetic peptide (Fmoc solid phase, RP-HPLC purified)"}, "B3": {"name": "U1-scrambled peptide (peptide)", "peptide": "{Biotin-Ahx}-ELNCDVEVEGSDC-NH2", "modifications": "cysteine pairing not given here", "notes": "scrambled order of the residues of peptide U1; also called ScrU1; source: synthetic peptide (Fmoc solid phase, RP-HPLC purified)"}, "B4": {"name": "U1 peptide (hUbA1 UFD region, 1038-1050) (peptide)", "peptide": "{Biotin-Ahx}-LCCNDESGEDVEV-NH2", "modifications": "cysteine pairing not given here", "notes": "human UbA1 (E1), UFD region, residues 1038-1050; source: synthetic peptide (Fmoc solid phase, RP-HPLC purified)"}}, "key": {"[1]": {"test": "Solubility of the synthesized peptides (testability in binding assays)", "type": "physicochemical", "conditions": "for Solubility: biotinylated peptide, not testable in binding assays; for solubility, in words: biotinylated peptides", "excerpt": "(§1) On the basis of the 3D model of the quaternary complex, we have designed six peptides as molecular probes in order to calibrate their ability to interfere the binding of UbcH10. This strategy was motivated by two main reasons. First, the identification of short peptides that mediate protein-protein interaction seemed a priori effective for disrupting the protein-protein recognition and binding. While other strategies, i.e. introduction of specific mutations, may also be envisaged, it is unclear whether single-point mutants might lead to a significant destabilization of the complex or even to impede the formation of the quaternary complex. Second, since our ultimate goal is the design of compounds that might disrupt the ubiquitilation process, testing a series of suitably chosen short peptides represents a valuable proof-of-concept for supporting the potential therapeutic effect of peptidomimetics. Specifically, the peptides were designed to examine the capability of hUbA1 stretches that contribute to the protein-protein interface with UbcH10 (Figure S7). In particular, we have designed two peptides per interface, which will be denoted S for SCCH region, L for cross loop, and U for UFD (Table 4). In the UFD region peptides U1 and U2 were selected to test the relevance of the acidic residues in mediating the binding of the UbcH10 H1 helix. […] Finally, peptides L1 and L2 were chosen to explore the role of the cross loop region in assisting the interaction with UbcH10. All the peptides were synthesized as biotinylated derivatives by solid phase method and purified by RP-HPLC. Unfortunately, S1 and U2 were insoluble and so not testable in binding assays. The ability of the soluble peptides to bind recombinant GST-UbcH10 was checked by ELISA, utilizing GST as control (data not shown)."}, "GST-UbcH10 [2]": {"molecular_target": "T1, GST-UbcH10 (Homo sapiens, UniProt O00762)", "T1 construct": "made in house; host or cells: E. coli BL21 (DE3) RP", "T1 sequence (O00762 1-179)": "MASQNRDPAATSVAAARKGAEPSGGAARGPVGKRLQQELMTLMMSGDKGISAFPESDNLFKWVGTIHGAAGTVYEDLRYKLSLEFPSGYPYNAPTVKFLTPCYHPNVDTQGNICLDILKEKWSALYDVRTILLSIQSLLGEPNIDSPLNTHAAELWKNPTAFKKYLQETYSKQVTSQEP", "test": "ELISA binding of biotinylated peptides to coated GST-UbcH10", "conditions": "for binding to UbcH10, in words: ELISA on recombinant GST-UbcH10, biotinylated peptides; for Kd / KD (µM): ELISA, wells coated overnight at 4°C with 100 µg/ml GST-UbcH10 in PBS 1X, 1 mM TCEP, biotinylated peptides at 2.2, 11, 22, 44, 108 µM in PBS 1X (1 mM TCEP for U1 and ScrU1), streptavidin-HRP, OPD, read at 490 nm, GraphPad Prism", "description": "The PCR product was cloned into pGEX-4T1 expression vector (GE Healthcare), leading to a protein with a cleavable N-terminal GST tag (GST-UbcH10). E. coli BL21 (DE3) RP strain was transformed with the recombinant plasmid for GST-UbcH10. Overnight cultures were used to inoculate 500 ml LB medium containing 50 µg/ml ampicillin, and protein induction was performed by the addition of 1 mM IPTG at 22°C when an OD600 value of 0.7 was reached. After approximately 16 h the cells were harvested and the proteins were isolated by sonicating cell pellets resuspended in 30 ml PBS1X in the presence of an EDTA free protease inhibitor cocktail (Roche Diagnostics). The crude cell extract was cleared by centrifugation at 18000 rpm and the supernatant was loaded onto a 1 ml GST-trap column connected to AKTA FPLC system (GE-Healthcare) equilibrated with binding buffer PBS1X. After washing with ten volumes of binding buffer, a single elution step was performed with 50 mM TrisHCl, 10 mM reduced glutathione. The fractions containing GST-UbcH10 were pooled and extensively dialyzed against PBS1X at 4°C. The homogeneity of the protein was tested by SDS–PAGE and mass spectrometry.\nWells were coated overnight at 4°C with 100 µg/ml GST-UbcH10 in PBS 1X, 1 mM TCEP, in the presence of an EDTA free protease inhibitor cocktail (Roche Diagnostics). Binding step was performed with different concentrations of biotinylated peptides L1, L2, ScrL2, U1, ScrU1, S2 (2.2, 11, 22, 44, 108 µM) in PBS 1X (with 1 mM TCEP for U1 and ScrU1). A blocking solution 1% BSA in PBS 1X, 0.05% Tween-20 was used. Washes were executed with PBS 1X, 0.05% Tween-20. To verify the interaction a 1∶10000 dilution of horseradish peroxidase-conjugated streptavidin (Sigma Aldrich) in 0.3% BSA, PBS 1X was incubated for 1 hour. The colorimetric reaction was carried out with SIGMA-FAST OPD reagent (Sigma Aldrich), according to the manufacturer's instructions. Finally, readings were performed at 490 nm on a Model680 MicroplateReader (Bio-Rad, Hercules, CA-USA), and data were recorded by Microplate Manager 5.2 program and elaborated by GraphPad Prism program. Negative control experiments with the fusion tag GST in coating were performed in the same conditions described above.\nas §1, with “The ability of the soluble peptides to bind recombinant GST-UbcH10 was checked by ELISA, utilizing GST as control (data not shown).” left out"}, "GST-UbcH10 [3]": {"molecular_target": "T2, GST-UbcH10 (UniProt O00762 1-179)", "T2 construct": "UbcH10, a Ubiquitin Conjugation Enzyme (E2); PCR product cloned into pGEX-4T1; The GST tag is cleavable but the fusion GST-UbcH10 was coated on the wells; PDB 1I7K (used only for modelling) lacks the first 30 residues and has Ser114; nothing says that the ELISA construct has these limits; also called E2; recombinant GST-UbcH10; source: E. coli BL21 (DE3) RP, purified (GST-trap column, dialysed …)", "T2 sequence (looked up)": "T1 sequence (O00762 1-179)", "test": "ELISA; wells coated overnight at 4°C with 100 µg/ml GST-UbcH10 in PBS, 1 mM TCEP; biotinylated peptides at 2.2, 11, 22, 44, 108 µM in PBS (1 mM TCEP for U1 and ScrU1); detection with streptavidin-HRP, reading at 490 nm; apparent KD", "conditions": "both partners purified"}}, "note": "“Also recorded” adds a separate entry of the source. Residues, ends and D or L forms follow the SMILES beside them. *: point of attachment. Biotin = O=C1N[C@H]2[C@H](CS[C@H]2CCCCC(=O)*)N1; Ahx = NCCCCCC(=O)O", "data": [{"molecule": "LELCCNDESGEDV [U2, peptide from hUbA1 UFD region, residues 1036-1048, biotinylated derivative]", "values": [{"measurement": "Solubility", "setting": "[1]", "result": "Not soluble"}, {"measurement": "solubility, in words", "setting": "[1]", "result": "insoluble; also recorded: low solubility"}]}, {"molecule": "C[C@@H](O)[C@H](NC(=O)[C@H](CCCCN)NC(=O)[C@H](CO)NC(=O)[C@@H]1CCCN1C(=O)[C@H](CC(=O)O)NC(=O)[C@H](CO)NC(=O)CCCCCNC(=O)CCCC[C@@H]1SC[C@@H]2NC(=O)N[C@@H]21)C(=O)N[C@@H](CO)C(=O)N[C@@H](CCC(=O)O)C(=O)N[C@@H](Cc1ccc(O)cc1)C(=O)N[C@@H](CCC(N)=O)C(=O)N1CCC[C@H]1C(=O)N[C@@H](CO)C(=O)N[C@@H](CCC(=O)O)C(N)=O", "note": "[ScrL2] ({Biotin-Ahx}-SDPSKTSEYQPSE-NH2)", "values": [{"measurement": "binding to UbcH10, in words", "setting": "GST-UbcH10 [2]", "result": "very poor binding"}, {"measurement": "Kd", "setting": "GST-UbcH10 [2]", "result": "> 80", "unit": "µM"}]}, {"molecule": "CC(C)C[C@H](NC(=O)[C@H](CCC(=O)O)NC(=O)CCCCCNC(=O)CCCC[C@@H]1SC[C@@H]2NC(=O)N[C@@H]21)C(=O)N[C@@H](CC(N)=O)C(=O)N[C@@H](CS)C(=O)N[C@@H](CC(=O)O)C(=O)N[C@H](C(=O)N[C@@H](CCC(=O)O)C(=O)N[C@H](C(=O)N[C@@H](CCC(=O)O)C(=O)NCC(=O)N[C@@H](CO)C(=O)N[C@@H](CC(=O)O)C(=O)N[C@@H](CS)C(N)=O)C(C)C)C(C)C", "note": "[ScrU1] ({Biotin-Ahx}-ELNCDVEVEGSDC-NH2)", "values": [{"measurement": "binding to UbcH10, in words", "setting": "GST-UbcH10 [2]", "result": "very poor binding"}, {"measurement": "Kd", "setting": "GST-UbcH10 [2]", "result": "> 100", "unit": "µM"}]}, {"molecule": "RDEFEGLFKQPAEN [S2, peptide corresponding to helix H19 in the hUbA1 SCCH region, residues 649-662, designed as negative control]", "values": [{"measurement": "KD (µM)", "setting": "GST-UbcH10 [2]", "result": "No binding"}]}, {"molecule": "SQDPPEKSIPI [L1, peptide from hUbA1 cross loop, residues 621-631, biotinylated derivative]", "values": [{"measurement": "binding to UbcH10, in words", "setting": "GST-UbcH10 [2]", "result": "low affinity"}, {"measurement": "KD (µM)", "setting": "GST-UbcH10 [2]", "result": "No binding"}]}, {"molecule": "IHVSDQELQSA [S1, peptide from hUbA1 SCCH region (Cys-cap), residues 807-817, biotinylated derivative]", "values": [{"measurement": "Solubility", "setting": "[1]", "result": "Not soluble"}, {"measurement": "solubility, in words", "setting": "[1]", "result": "insoluble"}]}, {"molecule": "B1", "values": [{"measurement": "Kd", "setting": "GST-UbcH10 [3]", "result": 20, "unit": "µM"}]}, {"molecule": "B2", "values": [{"measurement": "Kd", "setting": "GST-UbcH10 [3]", "result": "> 80", "unit": "µM"}]}, {"molecule": "B3", "values": [{"measurement": "Kd", "setting": "GST-UbcH10 [3]", "result": "> 100", "unit": "µM"}]}, {"molecule": "B4", "values": [{"measurement": "Kd", "setting": "GST-UbcH10 [3]", "result": 10, "unit": "µM"}]}]}
